Source: PubChem BioAssay (NCI)
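Where inhibition never reached the appropriate level, the endpoint shown equals the highest concentration tested. Otherwise, values were interpolated linearly from a five-concentration, 48-hour dose response in 96-well plates. The concentration for full growth arrest is given as TGI.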

Key:
Assay in all cases: NCI tumour cell line growth inhibition, 48 h
CCRF-CEM leukemia = tested on: CCRF-CEM leukemia
EKVX NSCLC = tested on: EKVX NSCLC
HCT-116 colon = tested on: HCT-116 colon
K-562 leukemia = tested on: K-562 leukemia
MDA-MB-435 = tested on: MDA-MB-435
MOLT-4 leukemia = tested on: MOLT-4 leukemia
NCI-H23 lung = tested on: NCI-H23 lung
NCI-H522 lung = tested on: NCI-H522 lung
NCI/ADR-RES ovarian = tested on: NCI/ADR-RES ovarian
PC-3 prostate = tested on: PC-3 prostate
SW-620 colon = tested on: SW-620 colon
T-47D breast = tested on: T-47D breast
UACC-62 melanoma = tested on: UACC-62 melanoma
UO-31 renal = tested on: UO-31 renal

SMILES	TGI (CCRF-CEM leukemia) [µM]	TGI (EKVX NSCLC) [µM]	TGI (HCT-116 colon) [µM]	TGI (K-562 leukemia) [µM]	TGI (MDA-MB-435) [µM]	TGI (MOLT-4 leukemia) [µM]	TGI (NCI-H23 lung) [µM]	TGI (NCI-H522 lung) [µM]	TGI (NCI/ADR-RES ovarian) [µM]	TGI (PC-3 prostate) [µM]	TGI (SW-620 colon) [µM]	TGI (T-47D breast) [µM]	TGI (UACC-62 melanoma) [µM]	TGI (UO-31 renal) [µM]
COC(=O)c1c2c(cc3c1CC1(C3)Cc3ccc4c(c3C1=O)CCC4)CCC2 (stereo not given)	> 81.8	> 100	> 62.2	> 100	3.22	> 100	> 31.6	6.19	> 22.5	> 24.4	> 100	> 100	> 25.3	> 44.6
COc1ccc(/C(Cl)=C(\CNc2ccccn2)c2ccccc2)cc1OC	> 100	> 100	> 100	> 100	> 100	> 100	> 100	> 100	> 100	> 100	> 100	> 100	> 100	> 100
C[N+]1(CCCC[N+]2(C)CCCCCCC2)CCCCCCC1	> 100	> 100	> 100	> 100	> 100	> 100	> 100	> 100	> 100	> 100	> 100	> 100	> 100	> 100
O=C(O)c1nc2cc(C(F)(F)F)ccc2[nH]c1=O	> 100	> 100	> 100	> 100	> 100	> 100	> 100	> 100	> 100	> 100	> 100	> 100	> 100	> 100
COc1ccc2[nH]cc(CN3CCC(CO)(c4ccccc4)CC3)c2c1	75.1	24	35.8	43.1	47.6	56.9	> 100	35.5	> 100	> 100	47.8	46.5	92.2	72.2
O=c1c2ccccc2n2n1Cc1ccccc1C2	> 100	> 100	> 100	> 100	> 100	> 100	> 100	> 100	> 100	> 100	> 100	> 100	> 100	> 100
CC(=O)[C@]1(C)[C@H](C)O[C@](C)(CO)[C@H]1O[Si](C)(C)c1ccccc1	> 100	> 100	> 100	> 100	> 100	> 100	81	52.3	> 100	> 100	> 100	97.9	> 100	46.6
O=c1[nH]cnc2c1ncn2C1SC(CO)C(O)C1O (stereo not given)	> 100	> 100	> 100	> 100	> 100	> 100	> 100	> 100	> 100	> 100	> 100	> 100	> 100	> 100
Cc1ccc(C(=O)c2[nH]c(Nc3ccc(Cl)cc3)c(C(=S)Nc3ccccc3)c2N)cc1	> 100	19	11	24	19.7	32.6	9.1	23.6	17.1	23.3	37.7	> 100	28.1	23
CCOC(=O)NC(C(C(=O)OCC)C(=O)OCC)(C(F)(F)F)C(F)(F)F	> 100	> 100	> 100	> 100	> 100	> 100	> 100	> 100	> 100	> 100	> 100	> 100	> 100	> 100
